target: MAPK14/p38α (Homo sapiens, UniProt Q16539); assay: p38α MAP kinase activity based on the rate of phosphorylation of ATF-2 (TR-FRET); format: biochemical; settings: 90 μM ATP, 0.4 μM GFP-ATF2 (19–96), 1 ng/mL MAPK14/p38α, 1 h RT; read-out: p38α MAP kinase inhibitory activity IC50
Procedure: 4.3. The p38α MAP Kinase Activity Based on the Rate of Phosphorylation of ATF-2
Kinase reaction buffer composition: 50 mM HEPES (pH 7.5), 10 mM MgCl2, 0.01% BRIJ-35 and 1 mM EGTA. Titration MAPK14/p38α at 90 μM ATP: Prepare MAPK14/p38α in kinase buffer at a concentration of 500 ng/mL. Perform two-fold serial dilution using kinase buffer from 500 ng/mL, 16 dose points. Add 5 μL of the serially diluted MAPK14/p38α into the 384-well plate in triplicate. Prepare 1 mL of 0.8 μM substrate GFP-ATF2 (19–96) and 180 μMATP in kinase reaction buffer. The reaction was carried out by adding 5 μL of the substrate GFP-ATF2 (19–96) and ATP solution into each well of the assay plate. Seal the assay plate and incubate for 1 h at room temperature (RT).
An amount of 4 μL MAPK14/p38α was added to each well of the 384-well assay plate. Incubate for 15 min at RT. Finally, 4 μL substrate GFP-ATF2 (19–96) and ATP in kinase reaction buffer were added to start the reaction. The final concentrations of MAPK14/p38α, Substrate, and ATP were 1 ng/mL, 0.4 μM, and 90 μM, respectively. Incubate for 1 h at RT. Add 10 μL/well of antibody solution. The final concentrations of EDTA and antibody were 10 mM and 2 nM respectively. Incubate for 30 min at RT.

Sequence of MAPK14/p38α (Q16539 whole entry): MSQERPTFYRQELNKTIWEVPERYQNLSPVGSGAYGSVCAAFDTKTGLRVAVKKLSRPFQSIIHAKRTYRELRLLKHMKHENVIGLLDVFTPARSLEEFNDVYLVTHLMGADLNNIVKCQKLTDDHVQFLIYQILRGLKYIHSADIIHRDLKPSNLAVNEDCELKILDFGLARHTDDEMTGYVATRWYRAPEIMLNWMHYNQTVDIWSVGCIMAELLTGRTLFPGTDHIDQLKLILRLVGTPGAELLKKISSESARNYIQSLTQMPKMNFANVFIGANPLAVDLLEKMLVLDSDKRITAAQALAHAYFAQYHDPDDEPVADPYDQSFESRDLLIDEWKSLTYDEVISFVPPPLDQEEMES

| SMILES | IC50 [nM] |
| --- | --- |
| COc1c(Br)cc(C[C@@H](NC(=O)Nc2ccc(C)cc2)C(=O)NCCc2cc(Br)c(O)c(Br)c2)cc1Br [Compound 5n] | 279 ± 28.9 |
| CCOc1ccc(NC(=O)NCCc2cc(Br)c(OC)c(Br)c2)cc1 [Compound 6b] | 221 ± 4.2 |
| COc1c(Br)cc(CC(NC(=O)Nc2ccc(OCCCN3CCOCC3)cc2)C(=O)NCCc2cc(Br)c(O)c(Br)c2)cc1Br (stereo not shown) [Compound 5o] | 134 ± 26.3 |
| COc1c(Br)cc(C[C@@H](NC(=O)Nc2ccc(F)cc2)C(=O)NCCc2cc(Br)c(O)c(Br)c2)cc1Br [Compound 5l] | 110 ± 18.8 |
| CCCCOc1ccc(NC(=O)N[C@H](Cc2cc(Br)c(OC)c(Br)c2)C(=O)NCCc2cc(Br)c(O)c(Br)c2)cc1 [Compound 5d] | 691 ± 38.4 |
| CCCCOc1ccc(CC(=O)N[C@H](Cc2cc(Br)c(OC)c(Br)c2)C(=O)NCCc2cc(Br)c(O)c(Br)c2)cc1 [Compound 4d] | 806 ± 139 |
| COc1c(Br)cc(CCNC(=O)Nc2cccc(Cl)c2)cc1Br [Compound 6i] | 17.5 ± 2.4 |
| COc1ccc(NC(=O)N[C@H](Cc2cc(Br)c(OC)c(Br)c2)C(=O)NCCc2cc(Br)c(O)c(Br)c2)cc1 [Compound 5a] | 112 ± 12 |
| COc1c(Br)cc(CCNC(=O)Nc2ccccc2F)cc1Br [Compound 6m] | 13.6 ± 3 |
| CCOc1ccc(CC(=O)N[C@H](Cc2cc(Br)c(OC)c(Br)c2)C(=O)NCCc2cc(Br)c(O)c(Br)c2)cc1 [Compound 4b] | 492 ± 46.2 |
| COCCOc1ccc(NC(=O)NCCc2cc(Br)c(OC)c(Br)c2)cc1 [Compound 6g] | 11.7 ± 3 |
| COc1c(Br)cc(CCNC(=O)Nc2ccc(OCCCN3CCOCC3)cc2)cc1Br [Compound 6o] | 7.9 ± 1.7 |
| COc1c(Br)cc(CCNC(=O)Nc2ccc(Br)cc2)cc1Br [Compound 6k] | 169 ± 2.6 |
| COc1c(Br)cc(CCNC(=O)Nc2ccc(F)cc2)cc1Br [Compound 6l] | 21.5 ± 4.6 |
| COc1c(Br)cc(CCNC(=O)Nc2ccccc2Cl)cc1Br [Compound 6j] | 71.2 ± 4.5 |
| COc1c(Br)cc(C[C@@H](NC(=O)Cc2ccc(Br)cc2)C(=O)NCCc2cc(Br)c(O)c(Br)c2)cc1Br [Compound 4k] | 832 ± 12.1 |

| SMILES | IC50 [nM] |
| --- | --- |
| COc1c(Br)cc(C[C@@H](NC(=O)Nc2cccc(Cl)c2)C(=O)NCCc2cc(Br)c(O)c(Br)c2)cc1Br [Compound 5i] | 51.3 ± 4.5 |
| COc1c(Br)cc(CCNC(=O)Nc2ccc(OC(C)C)cc2)cc1Br [Compound 6h] | 329 ± 44.2 |
| COc1c(Br)cc(C[C@@H](NC(=O)Cc2cccc(Cl)c2)C(=O)NCCc2cc(Br)c(O)c(Br)c2)cc1Br [Compound 4i] | 91 ± 11.1 |
| COc1c(Br)cc(C[C@@H](NC(=O)Nc2ccccc2F)C(=O)NCCc2cc(Br)c(O)c(Br)c2)cc1Br [Compound 5m] | 71.4 ± 19.6 |
| COc1c(Br)cc(C[C@@H](NC(=O)Nc2ccc(Br)cc2)C(=O)NCCc2cc(Br)c(O)c(Br)c2)cc1Br [Compound 5k] | 90.3 ± 2.7 |
| COc1c(Br)cc(C[C@@H](NC(=O)Nc2ccccc2Cl)C(=O)NCCc2cc(Br)c(O)c(Br)c2)cc1Br [Compound 5j] | 448 ± 64.1 |
| COc1c(Br)cc(C[C@@H](NC(=O)Cc2ccccc2F)C(=O)NCCc2cc(Br)c(O)c(Br)c2)cc1Br [Compound 4m] | 78.6 ± 59.2 |
| COc1c(Br)cc(C[C@@H](NC(=O)Cc2ccc(F)cc2)C(=O)NCCc2cc(Br)c(O)c(Br)c2)cc1Br [Compound 4l] | 618 ± 87.7 |
| CCCOc1ccc(NC(=O)N[C@H](Cc2cc(Br)c(OC)c(Br)c2)C(=O)NCCc2cc(Br)c(O)c(Br)c2)cc1 [Compound 5c] | 167 ± 23.9 |
| CCOc1ccc(NC(=O)N[C@H](Cc2cc(Br)c(OC)c(Br)c2)C(=O)NCCc2cc(Br)c(O)c(Br)c2)cc1 [Compound 5b] | 346 ± 18.4 |
| COc1c(Br)cc(C[C@@H](NC(=O)Cc2ccc(OCCCN3CCOCC3)cc2)C(=O)NCCc2cc(Br)c(O)c(Br)c2)cc1Br [Compound 4o] | 138 ± 13.6 |
| COc1ccc(NC(=O)NCCc2cc(Br)c(OC)c(Br)c2)cc1 [Compound 6a] | 263 ± 3.3 |
| CCC(C)Oc1ccc(NC(=O)NCCc2cc(Br)c(OC)c(Br)c2)cc1 (stereo not shown) [Compound 6e] | 920.3 ± 6.1 |
| COc1c(Br)cc(CCNC(=O)Nc2ccc(C)cc2)cc1Br [Compound 6n] | 300 ± 11.7 |
| CCCOc1ccc(NC(=O)NCCc2cc(Br)c(OC)c(Br)c2)cc1 [Compound 6c] | 701 ± 7.4 |

system: A549 cells; assay: MTT cell proliferation inhibition assay; format: cell-based; settings: Homo sapiens; A549, 48 h incubation
Procedure: 4.4. MTT Assay The A549 cell lines were cultured using DMEM and RPMI, respectively, in standard humidified incubation conditions at 37 °C in 5% CO2. Then, the cancer cells (1000/well) were placed on 96-well plates in triplicate. After 24 h incubation, cells were treated with a series of concentrations of the brominated tyrosine derivatives (1, 10, 20, 80 μmol/L). The positive control contained the same concentrations of BIRB-796, and the negative control received the same volume of DMSO. After 48h incubation, cells were stained with 5% MTT, and the optical density was recorded at an absorbance wavelength of 570 nm.

| SMILES | IC50 [nM] |
| --- | --- |
| COc1c(Br)cc(CCNC(=O)Nc2ccc(OCCCN3CCOCC3)cc2)cc1Br [Compound 6o] | 660 |

system: non-small cell lung cancer; assay: not given; set-up: method as in doi:10.2174/1570179414666170215092631; settings: previous study; cited from earlier work

| SMILES | antitumor activity against non-small cell lung cancer |
| --- | --- |
| COc1c(Br)cc(C[C@@H](NC(=O)Cc2ccc(OCCCNC(C)=O)cc2)C(=O)NCCc2cc(Br)c(O)c(Br)c2)cc1Br [Itampolin A] | potent concentration-dependent antitumor activity |

system: non-small cell lung A549 cells; assay: not given; set-up: method as in doi:10.2174/1570179414666170215092631; settings: previous study; cited from earlier work

| SMILES | inhibitory activity against non-small cell lung A549 cells |
| --- | --- |
| COc1c(Br)cc(C[C@@H](NC(=O)Cc2ccc(OCCCNC(C)=O)cc2)C(=O)NCCc2cc(Br)c(O)c(Br)c2)cc1Br [(−)-itampolin A] | significant inhibitory activity |

Reference: publication PMC6356581, “Fragment-Based Structural Optimization of a Natural Product Itampolin A as a p38α Inhibitor for Lung Cancer” (Marine Drugs, 2019)
